How the values were obtained:
[1] = (§1) Selectivity index, ratio of CC50 for cytotoxicity against human HFF cells infected with VZV Ellen virus assessed as reduction in cell viability by cell titer-glo assay to EC50 for antiviral activity against VZV Ellen infected in HFF cells assessed as inhibition of virus-induced cytopathic effect measured after 14 days; assay type: toxicity, cell-based; conditions: read-out: Ratio CC50/EC50
[2] = (§2) Selectivity index, ratio of CC50 for cytotoxicity against human MT4 cells assessed as reduction in cell viability by MTT assay to EC50 for anti-HIV activity against wild type HIV-1 IIIB infected in human MT4 cells assessed as inhibition of HIV-induced cytopathic effect measured after 5 days by MTT assay; assay type: toxicity, cell-based; conditions: read-out: Ratio CC50/EC50
HepG2 2.2.15 [3] = experiment: Cytotoxicity against human HepG2.2.15 cells assessed as reduction in cell viability by neutral red uptake assay; assay type: functional
[4] = test system: Human immunodeficiency virus 1; experiment: Anti-HIV activity against wild type HIV-1 IIIB infected in human MT4 cells assessed as inhibition of HIV-induced cytopathic effect measured after 5 days by MTT assay; assay type: functional, organism-based; conditions: Human immunodeficiency virus 1, IIIB, MT4, 120 h
Human alphaherpesvirus 3 [5] = experiment: Antiviral activity against VZV Ellen infected in HFF cells assessed as reduction in viral replication measured after 14 days; assay type: functional, organism-based; conditions: Human alphaherpesvirus 3, Ellen, 336 h; for EC90: time 14 day
[6] = Cytotoxicity against human HFF cells infected with HCMV AD-169 virus assessed as reduction in cell viability by cell titer-glo assay; assay type: toxicity, cell-based
Hepatitis B virus [7] = experiment: Antiviral activity against wild type HBV infected in human HepG2 2.2.15 cells assessed as reduction in viral replication pre incubated for 3 days followed by replacement with fresh compounds for another 3 days prior to pronase treatment by RT-qPCR analysis; assay type: functional, organism-based, HepG2.2.15; conditions: for EC50: HepG2.2.15; for EC90: HepG2.2.15, 144 h, time 6 day
[8] = as §1, with “HCMV AD-169” for “VZV Ellen”; assay type: toxicity, cell-based; conditions: read-out: Ratio CC50/EC50
[9] = test system: Human immunodeficiency virus 2; experiment: Anti-HIV activity against wild type HIV-2 ROD infected in human MT4 cells assessed as inhibition of HIV-induced cytopathic effect measured after 5 days by MTT assay; assay type: functional, organism-based; conditions: Human immunodeficiency virus 2, ROD, MT4, 120 h
[10] = Cytotoxicity against human MT4 cells assessed as reduction in cell viability by MTT assay; assay type: toxicity, cell-based
[11] = Cytotoxicity against human HFF cells infected with VZV Ellen virus assessed as reduction in cell viability by cell titer-glo assay; assay type: toxicity, cell-based
[12] = as §2, with “HIV-2 ROD” for “HIV-1 IIIB”; assay type: toxicity, cell-based; conditions: read-out: Ratio CC50/EC50
Human betaherpesvirus 5 [13] = experiment: Antiviral activity against HCMV AD-169 infected in HFF cells assessed as reduction in viral replication measured after 14 days; assay type: functional, organism-based; conditions: Human betaherpesvirus 5, AD-169, HFF, 336 h; for EC90: time 14 day
HepG2 2.2.15 [14] = experiment: Cytotoxicity against human HepG2.2.15 cells assessed as reduction in cell viability incubated for 1 to 4 hrs by MTS uptake assay; assay type: functional; conditions: time 1-4 hrs
Human betaherpesvirus 5 [15] = experiment: Antiviral activity against HCMV Davis infected in HEL cells assessed as reduction in virus plaque formation; assay type: functional, organism-based; conditions: Human betaherpesvirus 5, Davis
[16] = Cytotoxicity against human HEL cells assessed as change in cell morphology measured after 3 days […]; assay type: toxicity, cell-based; conditions: time 3 day
Human alphaherpesvirus 3 [17] = experiment: Antiviral activity against VZV TK- infected in HEL cells assessed as reduction in virus plaque formation; assay type: functional, organism-based; conditions: Human alphaherpesvirus 3, TK-
Human betaherpesvirus 5 [18] = experiment: Antiviral activity against HCMV AD-169 infected in HEL cells assessed as reduction in virus plaque formation; assay type: functional, organism-based; conditions: Human betaherpesvirus 5, AD-169, HEL
[19] = Cytotoxicity against human HEL cells assessed as reduction in cell growth measured after 3 days by coulter counting method; assay type: toxicity, cell-based; conditions: time 3 day
Human alphaherpesvirus 3 [20] = experiment: Antiviral activity against VZV TK+ infected in HEL cells assessed as reduction in virus plaque formation; assay type: functional, organism-based; conditions: Human alphaherpesvirus 3, TK+
HepG2 2.2.15 [21] = experiment: Cytotoxicity against human HepG2.2.15 cells assessed as reduction in cell viability; assay type: functional
Hepatitis B virus [22] = experiment: Antiviral activity against wild type HBV infected in human HepG2 2.2.15 cells assessed as reduction in viral replication by DNA HYB (Vision)/neutral red (Tox) assay; assay type: functional, organism-based; conditions: HepG2.2.15
[23] = Selectivity index, ratio of CC50 cytotoxicity against human HepG2.2.15 cells assessed as reduction in cell viability to EC50 for antiviral activity against wild type HBV infected in human HepG2 2.2.15 cells assessed as reduction in viral replication by DNA HYB (RI)/neutral red (Tox) assay; assay type: toxicity, cell-based; conditions: read-out: Selectivity Index
[24] = Selectivity index, ratio of CC50 cytotoxicity against human HepG2.2.15 cells assessed as reduction in cell viability to EC50 for antiviral activity against wild type HBV infected in human HepG2 2.2.15 cells assessed as reduction in viral replication by DNA HYB (Vision)/neutral red (Tox) assay; assay type: toxicity, cell-based; conditions: read-out: Selectivity Index
Hepatitis B virus [25] = experiment: Antiviral activity against wild type HBV infected in human HepG2 2.2.15 cells assessed as reduction in viral replication by DNA HYB (RI)/neutral red (Tox) assay; assay type: functional, organism-based; conditions: HepG2.2.15

Row | Structure (SMILES) | selectivity ratio at 120 h [2] | CC50 (HepG2 2.2.15 [3]) [µM] | EC50 [4] [µM] | CC50 [6] [µM] | EC50 (Hepatitis B virus [7]) [µM] | EC90 (Hepatitis B virus [7]) [µM] | EC50 [9] [µM] | CC50 [10] [µM] | selectivity ratio at 120 h [12] | EC50 (Human betaherpesvirus 5 [13]) [µM] | EC90 (Human betaherpesvirus 5 [13]) [µM] | CC50 (HepG2 2.2.15 [14]) [µM] | EC50 (Human betaherpesvirus 5 [15]) [µM] | MCC at 72 h [16] [µM] | EC50 (Human alphaherpesvirus 3 [17]) [µM] | EC50 (Human betaherpesvirus 5 [18]) [µM] | CC50 at 72 h [19] [µM] | EC50 (Human alphaherpesvirus 3 [20]) [µM] | also measured
1 | C#CC(CO)(Cn1cc(C)c(=O)[nH]c1=O)OCP(=O)(O)O (racemic) | 1 | > 100 | > 393 | 140 | > 100 | > 100 | > 393 | > 393 | 1 | 30 | > 30 | – | – | – | – | – | – | – | selectivity ratio at 336 h [1]: 5; EC50 (Human alphaherpesvirus 3 [5]): 27.1 µM; EC90 (Human alphaherpesvirus 3 [5]): > 30 µM; selectivity ratio at 336 h [8]: < 5; CC50 [11]: 139 µM
2 | CC(CO)(Cn1cnc2c(=O)[nH]c(N)nc21)OCP(=O)(O)O (racemic) | 7 | – | 32.5 | – | 0.14 | 38.1 | 42.1 | 228 | 5 | – | – | > 100 | 5.37 | 300 | 3.6 | 5.37 | 21.6 | 2.4 | –
3 | C#CC(CO)(Cn1ccc(=O)[nH]c1=O)OCP(=O)(O)O (racemic) | 1 | > 100 | > 411 | > 150 | 21 | 77 | > 411 | > 411 | 1 | 150 | > 150 | – | – | – | – | – | – | – | selectivity ratio at 336 h [1]: > 7; EC50 (Human alphaherpesvirus 3 [5]): 20.5 µM; EC90 (Human alphaherpesvirus 3 [5]): > 150 µM; selectivity ratio at 336 h [8]: 1; CC50 [11]: > 150 µM
4 | CC(CO)(Cn1cnc2c(N)ncnc21)OCP(=O)(O)O (racemic) | 1 | – | > 352 | – | 0.82 | 21.8 | > 352 | > 352 | 1 | – | – | > 100 | 315 | > 315 | 36.9 | 115 | 205 | 30.8 | –
5 | CC(CO)(Cn1ccc(N)nc1=O)OCP(=O)(O)O (racemic) | 1 | – | > 426 | – | > 100 | > 100 | > 426 | > 426 | 1 | – | – | > 100 | 37.3 | > 341 | 45.6 | 24.9 | > 341 | 18.8 | –
6 | CC(CO)(Cn1ccc(=O)[nH]c1=O)OCP(=O)(O)O (racemic) | 1 | – | > 425 | – | > 100 | > 100 | > 425 | > 425 | 1 | – | – | > 100 | 186 | > 340 | 340 | 260 | – | 270 | –
7 | Nc1nc2c(ncn2COCCO)c(=O)[nH]1 [ACYCLOVIR] | – | – | – | – | – | – | – | – | – | – | – | – | 2.08 | > 444 | – | 2.27 | > 444 | – | –
8 | O=c1[nH]c(=O)n([C@H]2C[C@H](O)[C@@H](CO)O2)cc1/C=C/Br [BRIVUDINE] | – | – | – | – | – | – | – | – | – | – | – | – | 0.34 | > 300 | 36.1 | 0.29 | > 300 | 0.07 | –
9 | Nc1nc2c(ncn2COC(CO)CO)c(=O)[nH]1 [GANCICLOVIR] | – | – | – | > 150 | – | – | – | – | – | 0.86 | 74.2 | – | – | – | – | – | – | – | –
10 | Nc1ccn([C@@H]2CS[C@H](CO)O2)c(=O)n1 [LAMIVUDINE] | > 24 | 2120 | 2.53 | – | 0.04 | 0.13 | 9.9 | > 87.2 | > 9 | – | – | > 2 | – | – | – | – | – | – | CC50 (HepG2 2.2.15 [21]): 2120 µM; EC50 (Hepatitis B virus [22]): 0.04 µM; EC90 (Hepatitis B virus [22]): 0.12 µM; selectivity ratio [23]: 16200; selectivity ratio [24]: 57400; EC50 (Hepatitis B virus [25]): 0.13 µM; EC90 (Hepatitis B virus [25]): 0.35 µM

Reference: ChEMBL document CHEMBL5120909, “Reshaping an Acyclic Nucleoside Phosphonate into a Selective Anti-hepatitis B Virus Compound” (J Med Chem, 2022)
